Measured values: ChEMBL document CHEMBL4837260, “Structure-Guided Design of a Small-Molecule Activator of Sirtuin-3 that Modulates Autophagy in Triple Negative Breast Cancer” (J Med Chem, 2021)

How the values were obtained:
[1] = system: U-937; assay: Antiproliferative activity against human U-937 cells measured after 24 hrs by MTT assay; assay type: functional, cell-based; conditions: U-937, 24 h
[2] = system: HL-60; assay: Antiproliferative activity against human HL-60 cells measured after 24 hrs by MTT assay; assay type: functional, cell-based; conditions: HL-60, 24 h
[3] = system: MDA-MB-231; assay: Antiproliferative activity against human MDA-MB-231 cells measured after 24 hrs by MTT assay; assay type: functional, cell-based; conditions: MDA-MB-231, 24 h
[4] = molecular target: T1, NAD-dependent protein deacetylase sirtuin-3, mitochondrial (Homo sapiens, UniProt Q9NTG7); assay: Activation of recombinant human SIRT3 assessed as lysyl deacetylase activity using (Gln-Pro-Lys-Lys(Ac)) peptide substrate by fluorescent assay
T1 sequence (Q9NTG7 whole entry): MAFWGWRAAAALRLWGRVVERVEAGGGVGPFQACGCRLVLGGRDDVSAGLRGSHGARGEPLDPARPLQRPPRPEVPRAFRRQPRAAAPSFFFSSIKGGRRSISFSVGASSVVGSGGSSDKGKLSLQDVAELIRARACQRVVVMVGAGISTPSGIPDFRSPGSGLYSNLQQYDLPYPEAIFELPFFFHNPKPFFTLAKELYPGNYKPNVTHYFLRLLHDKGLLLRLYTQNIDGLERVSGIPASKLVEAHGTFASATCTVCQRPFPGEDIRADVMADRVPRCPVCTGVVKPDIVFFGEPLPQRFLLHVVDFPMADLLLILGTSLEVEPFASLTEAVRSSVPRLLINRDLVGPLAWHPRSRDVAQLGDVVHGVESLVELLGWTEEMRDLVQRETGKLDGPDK

[5] = system: MCF7; assay: Antiproliferative activity against human MCF7 cells measured after 24 hrs by MTT assay; assay type: functional, cell-based; conditions: MCF7, 24 h
[6] = Toxicity in BALB/c mouse xenografted with human MDA-MB-231 cells assessed as widening of the pulmonary septum and more cellular components at 100 mg/kg once daily for 1 week by H&E staining; assay type: organism-based; conditions: in vivo, 168 h, time 1 weeks
[7] = Toxicity in BALB/c mouse xenografted with human MDA-MB-231 cells assessed as change in body weight at 25 mg/kg once daily for 1 week; assay type: organism-based; conditions: in vivo, 168 h, time 1 weeks
[8] = Toxicity in BALB/c mouse xenografted with human MDA-MB-231 cells assessed as change in body weight at 100 mg/kg once daily for 1 week; assay type: organism-based; conditions: in vivo, 168 h, time 1 weeks

CCCCc1oc2ccccc2c1C(=O)c1cc(I)c(OCCN2CCCC2)c(I)c1 showed an IC50 [1] of 31.7 µM, an IC50 [2] of 23.2 µM and an IC50 [3] of 20.4 µM. For the same compound, the EC50 [4] was 16.2 µM and the IC50 [5] was greater than 50 µM.
Work on CCCCc1oc2ccccc2c1C(=O)c1cc(I)c(OCCN(C)C)c(I)c1 yielded an IC50 [1] of 8.68 µM, an IC50 [2] of 8.22 µM and an IC50 [3] of 6.6 µM. For the same compound, the EC50 [4] was 4.69 µM and the IC50 [5] was 39.4 µM.
For CCCCc1oc2ccccc2c1C(=O)c1ccc(OCCN(CC)CC)cc1, the IC50 [1] was 3.47 µM, the IC50 [2] was 2.77 µM and the IC50 [3] was 19.4 µM. For the same compound, the IC50 [5] was 5.26 µM.
CCCCc1oc2ccccc2c1C(=O)c1cc(I)c(OCCCN2CCN(Cc3ccccc3)CC2)c(I)c1 showed an IC50 [1] of 41.4 µM, an IC50 [2] greater than 50 µM and an IC50 [3] of 15.7 µM. The IC50 [5] was 28.7 µM.
CCCCc1oc2ccccc2c1C(=O)c1cc(I)c(OCCCNCc2ccccc2)c(I)c1 gave an IC50 [1] of 2.3 µM, an IC50 [2] of 4.4 µM and an IC50 [3] of 11.6 µM. The EC50 [4] was 10.7 µM and the IC50 [5] was 8.05 µM.
With CCCCc1oc2ccccc2c1C(=O)c1ccc(OCC(N)=O)cc1 the IC50 [1] was 42.2 µM, the IC50 [2] was greater than 50 µM and the IC50 [3] was greater than 50 µM. The IC50 [5] was greater than 50 µM.
With CCCCc1oc2ccccc2c1C(=O)c1ccc(OCC(=O)Nc2cccc(OC)c2)cc1 the IC50 [1] was 24.2 µM, the IC50 [2] was greater than 50 µM and the IC50 [3] was greater than 50 µM. It also gave an IC50 [5] of 38.5 µM.
CCCCc1oc2ccccc2c1C(=O)c1ccc(OCCCC(=O)N(C)Cc2ccccc2)cc1 showed an IC50 [1] of 10.5 µM, an IC50 [2] greater than 50 µM and an IC50 [3] greater than 50 µM. It also gave an IC50 [5] greater than 50 µM.
In the case of CCCCc1oc2ccccc2c1C(=O)c1cc(I)c(OCCCN(C)Cc2ccccc2)c(I)c1, the IC50 [1] is reported as 6.86 µM, the IC50 [2] is reported as 8.51 µM and the IC50 [3] is reported as 54 µM. For the same compound, the IC50 [5] was 8.02 µM.
Work on CCCCNC(=O)COc1ccc(C(=O)c2c(CCCC)oc3ccccc23)cc1 yielded an IC50 [1] of 22.8 µM, an IC50 [2] greater than 50 µM and an IC50 [3] of 34.5 µM. For the same compound, the EC50 [4] was 18.9 µM and the IC50 [5] was greater than 50 µM.
With CCCCc1oc2ccccc2c1C(=O)c1ccc(OCCCC(=O)N[C@H](C)c2ccccc2)cc1 the IC50 [1] was 30.7 µM, the IC50 [2] was greater than 50 µM and the IC50 [3] was greater than 50 µM. For the same compound, the IC50 [5] was greater than 50 µM.
CCCCc1oc2ccccc2c1C(=O)c1cc(I)c(OCCCC2CCCC2)c(I)c1 gave an IC50 [1] of 42.2 µM, an IC50 [2] greater than 50 µM and an IC50 [3] greater than 50 µM. The IC50 [5] was greater than 50 µM.
With CCCCNC(=O)CCCOc1ccc(C(=O)c2c(CCCC)oc3ccccc23)cc1 the IC50 [1] was 24.6 µM, the IC50 [2] was greater than 50 µM and the IC50 [3] was 38.1 µM. It also gave an EC50 [4] of 16.7 µM and an IC50 [5] greater than 50 µM.
In the case of CCCCc1oc2ccccc2c1C(=O)c1ccc(OCC(=O)N[C@@H](C)c2ccccc2)cc1, the IC50 [1] is reported as 33.8 µM, the IC50 [2] is reported as greater than 50 µM and the IC50 [3] is reported as greater than 50 µM. For the same compound, the IC50 [5] was 17.9 µM.
Compound CCCCc1oc2ccccc2c1C(=O)c1ccc(OCCCC(=O)NCc2ccccc2)cc1 has an IC50 [1] of 15.8 µM, an IC50 [2] of 28.9 µM and an IC50 [3] greater than 50 µM. It also gave an IC50 [5] of 49.7 µM.
CCCCc1oc2ccccc2c1C(=O)c1ccc(OCC(=O)NCc2ccccc2)cc1 gave an IC50 [1] of 16.3 µM, an IC50 [2] greater than 50 µM and an IC50 [3] greater than 50 µM. It also gave an IC50 [5] of 19.6 µM.
In the case of CCCCc1oc2ccccc2c1C(=O)c1cc(I)c(OCCCN2CCCC2)c(I)c1, the Activity [6] is reported as “Non-Toxic”, the Activity [7] is reported as “Non-Toxic” and the Activity [8] is reported as “Non-Toxic”.
Compound CCCCc1oc2ccccc2c1C(=O)c1cc(I)c(OCCCN2CCN(C)CC2)c(I)c1 has an IC50 [1] greater than 50 µM, an IC50 [2] greater than 50 µM and an IC50 [3] of 8.76 µM. The EC50 [4] was 3.46 µM and the IC50 [5] was 5.37 µM.
In the case of CCCCc1oc2ccccc2c1C(=O)c1cc(Cl)c(OCCCN2CCCC2)c(Cl)c1, the IC50 [1] is reported as 25.2 µM, the IC50 [2] is reported as 11.3 µM and the IC50 [3] is reported as 28.2 µM. It also gave an EC50 [4] of 0.81 µM and an IC50 [5] of 27.7 µM.
Work on CCCCc1oc2ccccc2c1C(=O)c1cc(I)c(OCCCN(CC)CC)c(I)c1 yielded an IC50 [1] of 30 µM, an IC50 [2] of 16 µM and an IC50 [3] of 26.8 µM. For the same compound, the EC50 [4] was 4.15 µM and the IC50 [5] was 21.5 µM.
Compound CCCCc1oc2ccccc2c1C(=O)c1ccc(OCC(=O)N2CCCCC2)cc1 has an IC50 [1] of 37.1 µM, an IC50 [2] greater than 50 µM and an IC50 [3] greater than 50 µM. For the same compound, the EC50 [4] was 2.68 µM and the IC50 [5] was greater than 50 µM.
CCCCc1oc2ccccc2c1C(=O)c1ccc(OCC(=O)N2CCOCC2)cc1 showed an IC50 [1] of 45.4 µM, an IC50 [2] greater than 50 µM and an IC50 [3] greater than 50 µM. The EC50 [4] was 1.23 µM and the IC50 [5] was 34 µM.
With CCCCc1oc2ccccc2c1C(=O)c1ccc(OCCCC(=O)N2CCCCC2)cc1 the IC50 [1] was 16.6 µM, the IC50 [2] was 31.9 µM and the IC50 [3] was 36 µM. The EC50 [4] was 2.38 µM and the IC50 [5] was 33 µM.
With CCCCc1oc2ccccc2c1C(=O)c1cc(I)c(OCCCN2CCCCC2)c(I)c1 the IC50 [1] was 18.2 µM, the IC50 [2] was 11.5 µM and the IC50 [3] was 15.7 µM. For the same compound, the EC50 [4] was 1.65 µM and the IC50 [5] was 37.9 µM.
For CCCCc1oc2ccccc2c1C(=O)c1ccc(OCCCC(=O)N[C@@H](C)c2ccccc2)cc1, the IC50 [1] was 22.4 µM, the IC50 [2] was greater than 50 µM and the IC50 [3] was greater than 50 µM. For the same compound, the EC50 [4] was 7.01 µM and the IC50 [5] was greater than 50 µM.
For CCCCc1oc2ccccc2c1C(=O)c1ccc(OCCCC(=O)N2CCOCC2)cc1, the IC50 [1] was 21.4 µM, the IC50 [2] was 34 µM and the IC50 [3] was 31.6 µM. For the same compound, the EC50 [4] was 3.02 µM and the IC50 [5] was 41.2 µM.
Work on CCCCc1oc2ccccc2c1C(=O)c1ccc(OCC(=O)N[C@H](C)c2ccccc2)cc1 yielded an IC50 [1] of 19.8 µM, an IC50 [2] greater than 50 µM and an IC50 [3] of 39 µM. For the same compound, the EC50 [4] was 17.4 µM and the IC50 [5] was 14.1 µM.
CCCCc1oc2ccccc2c1C(=O)c1ccc(OCCCN2CCCC2)cc1 showed an IC50 [1] of 6.82 µM, an IC50 [2] of 6.38 µM and an IC50 [3] of 19.5 µM. It also gave an IC50 [5] of 3.73 µM.
With CCCCc1oc2ccccc2c1C(=O)c1cc(I)c(OCCN(CC)CC)c(I)c1 [AMIODARONE] the EC50 [4] was 3.25 µM.
For C=CCc1ccc(O)c(-c2ccc(O)c(CC=C)c2)c1 [HONOKIOL], the IC50 [3] was 44.9 µM and the EC50 [4] was 0.17 µM.
With Oc1ccc(/C=C/c2cc(O)cc(O)c2)cc1 [RESVERATROL] the IC50 [3] was 98.8 µM and the EC50 [4] was 55.2 µM.
